This test deals with L1210 leukemia ip in BDF1 mice, survival T/C. Nature of the test: NCI In Vivo Anticancer Drug Screen. Data for tumor model L1210 Leukemia (intraperitoneal) in B6D2F1 (BDF1) mice. To be noted: endpoint: mean survival time, higher = longer survival. The method in brief:
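Survival endpoint. Drug-treated group vs vehicle group, expressed as T divided by C. Tumor passaged by transplantation.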

[1] abbreviates: dose: 100.0 mg/kg/injection, schedule: Q04DX003 (ip), vehicle: Klucel (hydroxypropylcellulose) (HPC).
Where [2] appears, read: dose: 200.0 mg/kg/injection, schedule: Q04DX003 (ip), vehicle: Klucel (hydroxypropylcellulose) (HPC).
Where [3] appears, read: dose: 400.0 mg/kg/injection, schedule: Q04DX003 (ip), vehicle: Klucel (hydroxypropylcellulose) (HPC).
[4] abbreviates: dose: 100.0 mg/kg/injection, schedule: Q04DX003 (ip), vehicle: saline.
The mark [5] stands for this setting: dose: 200.0 mg/kg/injection, schedule: Q04DX003 (ip), vehicle: saline.
Where [6] appears, read: dose: 400.0 mg/kg/injection, schedule: Q04DX003 (ip), vehicle: saline.
[7] abbreviates: dose: 100.0 mg/kg/injection, schedule: Q04DX002 (ip), vehicle: Klucel (hydroxypropylcellulose) (HPC).
Where [8] appears, read: dose: 200.0 mg/kg/injection, schedule: Q04DX002 (ip), vehicle: Klucel (hydroxypropylcellulose) (HPC).
Setting [9] is: dose: 400.0 mg/kg/injection, schedule: Q04DX002 (ip), vehicle: Klucel (hydroxypropylcellulose) (HPC).
The mark [10] stands for this setting: dose: 100.0 mg/kg/injection, schedule: Q04DX003 (ip), vehicle: saline with Tween-80.
[11] abbreviates: dose: 200.0 mg/kg/injection, schedule: Q04DX003 (ip), vehicle: saline with Tween-80.
Setting [12] is: dose: 400.0 mg/kg/injection, schedule: Q04DX003 (ip), vehicle: saline with Tween-80.

Where “and” joins values, the source holds several entries; their conditions need not be identical. Equal values may be shown once. Inconclusive results and toxic doses are left out.

As to `CCCCCOC(=O)C#CC(=O)OCCCCC`, the T/C is, setting by setting: (dose: 1.56 mg/kg/injection, schedule: Q01DX009 (ip), vehicle: carboxymethylcellulose (CMC)) 92 % of control and 101 % of control; (dose: 3.13 mg/kg/injection, schedule: Q01DX009 (ip), vehicle: carboxymethylcellulose (CMC)) 108 % of control and 89 % of control; (dose: 12.5 mg/kg/injection, schedule: Q01DX009 (ip), vehicle: carboxymethylcellulose (CMC)) 89 % of control; (dose: 12.5 mg/kg/injection, schedule: Q04DX003 (ip), vehicle: carboxymethylcellulose (CMC)) 98 % of control; (dose: 25.0 mg/kg/injection, schedule: Q04DX003 (ip), vehicle: carboxymethylcellulose (CMC)) 98 % of control; (dose: 50.0 mg/kg/injection, schedule: Q01DX009 (ip), vehicle: carboxymethylcellulose (CMC)) 89 % of control. Besides, the T/C is 96 % of control and 100 % of control (dose: 50.0 mg/kg/injection, schedule: Q04DX003 (ip), vehicle: carboxymethylcellulose (CMC)); 97 % of control and 106 % of control (dose: 100.0 mg/kg/injection, schedule: Q04DX002 (ip), vehicle: carboxymethylcellulose (CMC)); 95 % of control and 97 % of control (dose: 200.0 mg/kg/injection, schedule: Q04DX002 (ip), vehicle: carboxymethylcellulose (CMC)).
Regarding `CCOC(=O)Nc1ccc(NC(=O)OCC)cc1`, the T/C by setting is: (dose: 100.0 mg/kg/injection, schedule: Q01DX009 (ip), vehicle: Klucel (hydroxypropylcellulose) (HPC)) 89 % of control; under setting [1], 96 % of control; (dose: 200.0 mg/kg/injection, schedule: Q01DX009 (ip), vehicle: Klucel (hydroxypropylcellulose) (HPC)) 89 % of control; under setting [2], 93 % of control; under setting [3], 111 % of control.
As for `COC1=C2C[C@@H](C)C[C@@H](OC)[C@@H](O)[C@H](C)/C=C(\C)[C@@H](OC(N)=O)[C@H](OC)/C=C\C=C(/C)C(=O)NC(=CC1=O)C2=O`, the T/C by setting is: (dose: 0.13 mg/kg/injection, schedule: Q01DX009 (ip), vehicle: saline with Tween-80) 103 % of control; (dose: 0.25 mg/kg/injection, schedule: Q01DX009 (ip), vehicle: saline with Tween-80) 103 % of control; (dose: 0.5 mg/kg/injection, schedule: Q01DX009 (ip), vehicle: saline with Tween-80) 98 % of control; (dose: 1.0 mg/kg/injection, schedule: Q01DX009 (ip), vehicle: saline with Tween-80) 101 % of control; (dose: 2.0 mg/kg/injection, schedule: Q01DX009 (ip), vehicle: saline with Tween-80) 103 % of control; (dose: 4.0 mg/kg/injection, schedule: Q01DX009 (ip), vehicle: saline with Tween-80) 108 % of control.
With `Cc1cc(C)c[n+](Cc2ccccc2Cl)c1`, the T/C was 102 % of control (dose: 12.5 mg/kg/injection, schedule: Q01DX001 (ip), vehicle: saline) and 96 % of control (dose: 25.0 mg/kg/injection, schedule: Q01DX001 (ip), vehicle: saline).
Take `c1ccc(C2=NN=C(c3ccccc3)CCC2)cc1`: the T/C is, setting by setting: (dose: 100.0 mg/kg/injection, schedule: Q04DX003 (ip), vehicle: acetone) 95 % of control; (dose: 200.0 mg/kg/injection, schedule: Q04DX003 (ip), vehicle: acetone) 86 % of control; (dose: 400.0 mg/kg/injection, schedule: Q04DX003 (ip), vehicle: acetone) 98 % of control.
In the case of `COc1cc(/C=N/N=C(\N)N[N+](=O)[O-])cc(OC)c1OC`, the T/C is 114 % of control (dose: 100.0 mg/kg/injection, schedule: Q01DX001 (ip), vehicle: saline with Tween-80); 97 % of control (dose: 200.0 mg/kg/injection, schedule: Q01DX001 (ip), vehicle: saline with Tween-80); 96 % of control (dose: 400.0 mg/kg/injection, schedule: Q01DX001 (ip), vehicle: saline with Tween-80).
For the compound `Cc1ccc(S(=O)(=O)CC(=O)NC(N)=O)cc1`, the T/C was 92 % of control under setting [4], 103 % of control under setting [5] and 105 % of control under setting [6].
In the case of `Cc1ccc([N+](=O)[O-])cc1NC(=O)N(CC(O)c1ccccc1)C1CCCCC1` (stereo not drawn), the T/C by setting is: under setting [7], 90 % of control; under setting [8], 97 % of control; under setting [9], 95 % of control.
As for `O=C(Oc1ccc(Cl)cc1Cl)c1ccccc1`, the T/C is 110 % of control (dose: 100.0 mg/kg/injection, schedule: Q01DX009 (ip), vehicle: saline with Tween-80); 98 % of control under setting [10]; 110 % of control (dose: 200.0 mg/kg/injection, schedule: Q01DX009 (ip), vehicle: saline with Tween-80); 96 % of control under setting [11]; 113 % of control (dose: 400.0 mg/kg/injection, schedule: Q01DX009 (ip), vehicle: saline with Tween-80); 101 % of control under setting [12].
Take `CCCCC(CC)CCC(O)CCC(CC)CC` (stereo not drawn): the T/C is, setting by setting: under setting [1], 102 % of control; under setting [2], 98 % of control; under setting [3], 102 % of control.
Take `CC1CCC2(OC1)OC1CC3C4CCC5CC(=O)CCC5(C)C4CCC3(C)C1C2C` (stereo not drawn): the T/C by setting is: under setting [7], 102 % of control; under setting [8], 105 % of control; under setting [9], 94 % of control.
In the case of `CCOC(=O)/C=C/Sc1ccccc1`, the T/C is, setting by setting: (dose: 12.5 mg/kg/injection, schedule: Q04DX002 (ip), vehicle: saline with Tween-80) 98 % of control; (dose: 25.0 mg/kg/injection, schedule: Q04DX002 (ip), vehicle: saline with Tween-80) 98 % of control; (dose: 50.0 mg/kg/injection, schedule: Q04DX002 (ip), vehicle: saline with Tween-80) 91 % of control.
Consider `CN(C)CCNc1ccc([N+](=O)[O-])c2sc3ccccc3c(=O)c12`, for which the T/C is 94 % of control and 98 % of control (dose: 5.3 mg/kg/injection, schedule: Q01DX Z (ip), vehicle: methylcellulose (MC)); 102 % of control (dose: 8.0 mg/kg/injection, schedule: Q01DX Z (ip), vehicle: carboxymethylcellulose (CMC)); 98 % of control and 106 % of control (dose: 8.0 mg/kg/injection, schedule: Q01DX Z (ip), vehicle: methylcellulose (MC)); 118 % of control (dose: 12.0 mg/kg/injection, schedule: Q01DX Z (ip), vehicle: carboxymethylcellulose (CMC)); 152 % of control (dose: 26.0 mg/kg/injection, schedule: Q01DX Z (ip), vehicle: carboxymethylcellulose (CMC)); 156 % of control (dose: 27.0 mg/kg/injection, schedule: Q01DX Z (ip), vehicle: carboxymethylcellulose (CMC)). The T/C by setting is: (dose: 27.0 mg/kg/injection, schedule: Q01DX Z (ip), vehicle: methylcellulose (MC)) 98 % of control and 156 % of control and 216 % of control; (dose: 40.0 mg/kg/injection, schedule: Q01DX Z (ip), vehicle: carboxymethylcellulose (CMC)) 172 % of control; (dose: 40.0 mg/kg/injection, schedule: Q01DX Z (ip), vehicle: methylcellulose (MC)) 111 % of control.
Consider `COC(=O)C(CCCN=C(N)N)NC(=O)OCc1ccccc1` (stereo not drawn), for which the T/C was 105 % of control under setting [4], 110 % of control under setting [5] and 108 % of control under setting [6].
In the case of `O=C(Nc1cc(Cl)c(Cl)cc1NC(=O)C(Cl)(Cl)Cl)C(Cl)(Cl)Cl`, the T/C is 97 % of control (dose: 5.0 mg/kg/injection, schedule: Q01DX001 (ip), vehicle: other) and 100 % of control (dose: 10.0 mg/kg/injection, schedule: Q01DX001 (ip), vehicle: other).
For `O=c1[nH]c(C(F)(F)F)c(CCCCc2ccccc2)c(=O)[nH]1`, the T/C is 105 % of control (dose: 50.0 mg/kg/injection, schedule: Q01DX001 (ip), vehicle: Klucel (hydroxypropylcellulose) (HPC)); 94 % of control (dose: 100.0 mg/kg/injection, schedule: Q01DX001 (ip), vehicle: Klucel (hydroxypropylcellulose) (HPC)); 90 % of control (dose: 200.0 mg/kg/injection, schedule: Q01DX001 (ip), vehicle: Klucel (hydroxypropylcellulose) (HPC)).
With `C1COCCN1`, the T/C was 101 % of control (dose: 25.6 mg/kg/injection, schedule: Q04DX002 (ip), vehicle: saline with Tween-80); 101 % of control (dose: 64.0 mg/kg/injection, schedule: Q04DX002 (ip), vehicle: saline with Tween-80); 98 % of control under setting [10]; 101 % of control (dose: 160.0 mg/kg/injection, schedule: Q04DX002 (ip), vehicle: saline with Tween-80); 101 % of control under setting [11]; 101 % of control (dose: 400.0 mg/kg/injection, schedule: Q04DX002 (ip), vehicle: saline with Tween-80). The T/C under setting [12] was 95 % of control.

The record behind these values is PubChem BioAssay AID248 (DTP/NCI, 2004).
